Test [1] has as its target T1, Plk1 (Homo sapiens, UniProt P53350). The following applies: read-out: Reported Plk1 IC50 values; cited from earlier work.
The next test deals with full-length Plk1 (Homo sapiens, UniProt P53350). The test is described as follows: fluorescence recovery assay, competition of inhibitors with probe 4. It counts as binding.
In test [2] the target is T1, Plk1. As to the kind of experiment: fluorescence recovery assay, probe binding as a function of Plk1 concentration.

T1 sequence (P53350 whole entry): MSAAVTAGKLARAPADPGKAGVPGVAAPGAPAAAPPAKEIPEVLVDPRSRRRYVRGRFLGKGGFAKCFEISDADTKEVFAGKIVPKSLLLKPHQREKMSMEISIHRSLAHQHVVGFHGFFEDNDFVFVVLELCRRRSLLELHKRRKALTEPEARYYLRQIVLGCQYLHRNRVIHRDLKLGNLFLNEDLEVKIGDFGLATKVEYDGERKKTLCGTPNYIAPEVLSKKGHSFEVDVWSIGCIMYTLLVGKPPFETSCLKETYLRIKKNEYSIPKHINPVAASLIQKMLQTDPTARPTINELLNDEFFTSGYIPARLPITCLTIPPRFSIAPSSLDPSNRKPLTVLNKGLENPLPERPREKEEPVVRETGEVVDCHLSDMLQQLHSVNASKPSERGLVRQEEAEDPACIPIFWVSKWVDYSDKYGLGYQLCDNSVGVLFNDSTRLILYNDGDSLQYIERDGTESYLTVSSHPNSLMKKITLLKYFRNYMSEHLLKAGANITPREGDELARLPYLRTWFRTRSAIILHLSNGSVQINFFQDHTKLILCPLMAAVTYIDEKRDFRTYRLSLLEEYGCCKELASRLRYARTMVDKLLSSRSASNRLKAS
Sequence of full-length Plk1 (P53350 whole entry): as above

With SBE13, the IC50 (in general, the point on the concentration scale where inhibition reaches its midpoint) on Plk1 [1] is 0.2 nM.
On full-length Plk1, `CC[C@@H]1C(=O)N(C)c2cnc(Nc3ccc(C(=O)N[C@H]4CC[C@H](N5CCN(CC6CC6)CC5)CC4)cc3OC)nc2N1C(C)C` [BI6727] came in with a 50% inhibitory concentration (IC50) of 31 ± 0.67 nM.
With FITC-PEG-Lys(BI2536) [compound 4], the Kd (in general, a measure of binding affinity in units of concentration) on Plk1 [2] (10 nM of probe 4) is 32 ± 0.78 nM; on Plk1 [2] (20 nM of probe 4), 33 ± 0.98 nM; on Plk1 [2] (30 nM of probe 4), 32 ± 1.1 nM; on Plk1 [2] (40 nM of probe 4), 38 ± 1.8 nM; at Plk1 [2] (incubation time 15 minutes), 42 ± 1.5 nM; at Plk1 [2] (incubation time 30 minutes), 34 ± 1.1 nM. Also, the Kd at Plk1 [2] (incubation time 60 minutes) amounted to 32 ± 1.5 nM.

These data come from publication PMC7523589 (Analytical methods : advancing methods and applications, 2020).
